Results on one molecule are retold here after ChEMBL document CHEMBL1147387, “A cytotoxic beta-carboline from the bryozoan Catenicella cribraria” (1993).

As usually defined, the GI50 is the concentration at which growth is held to half of that of the control. Low values mean more potent growth inhibition, high ones less potent growth inhibition. One may read the TGI as the concentration at which net growth stops. Low values mean more potent growth arrest, high ones less potent growth arrest.

The experiment in a line: Cytotoxicity against human NCI60 cells. It counts as functional.

`C=Cc1nccc2c1[nH]c1c(O)cccc12` displayed a GI50 of 1.8 µM and a TGI of 5.8 µM. For the same molecule, the CC50 (read-out: LC50 (the source's name)) was 19 µM.
